Tested on: prothrombin time (PT) of normal plasma NKP
Experiment: Three wet-chemistry Owren PT methods (Simple Simon PT; 20, 10, 5 μL sample in 200 μL reagent) on normal plasma NKP with added anticoagulant
Format: biochemical
Protocol: Experimental work was performed with the commercially available ambient room temperature coagulation instrument, Simple Simon P T Zafena A B, Linköping, Sweden, with functions described in EP 1 636 595 B2. One instrument or reader was used for each PT-method. Alternatively, the same instrument could be used for all PT-methods.
The three instruments were used together standing next to one another on a laboratory bench in thermal equilibrium with the ambient room temperature of the laboratory.
The ambient room temperature in the laboratory where the work was done varied between 21° C. and 26° C.
The PT-reagent was the one delivered together with lot N223M of the Simple Simon PT product, a reagent of Owren-type that thus contains effective amounts of thromboplastin, fibrinogen and FV (the thromboplastin of rabbit brain origin and the fibrinogen and the FV of bovine blood plasma origin). Other Owren type reagents could also be used.
The reagent was in portions of 200 μL to which sample, citrated blood or citrated blood plasma, was added and mixed. The addition was by an end-to-end plastic capillary mounted at one end of a tubular body with a displacement mechanism in the other end, this to allow convenient mixing of sample and reagent. Such Mixxocaps with 10 μL capillaries are supplied with the Simple Simon PT product. To perform the experiments described, some Mixxocaps were fitted with 20 μL capillaries, or 5 μL capillaries instead of the 10 μL capillaries with which they were supplied by the manufacturer.
The ratios between the volume of blood or blood plasma to the volume of liquid reagent used in the experiments were 1:11, 1:21 and 1:41. Other ratios lying within the range of 1:5 and 1:100 or within the range of 1:2 and 1:200 could be used.
Anticoagulated normal plasma was the NKP product GHI-163 lot 10188, MediRox AB, Nyköping, Sweden.
It was further relevant that all three PT-methods were calibrated, according to the invention, to show INR 1.000 for unadulterated NKP, and INR 1.357 for the NKP 1:2. All primary INR values, the results that appeared on the instrument screens (one instrument or reader was used for each PT-method), were therefore transformed to the corrected/calibrated INRc by the formula A*INRexp(B) where a and b were selected to given NKP and NKP 1:2 their desired values, 1.000 and 1.357, respectively. The INR-value of the NKP 1:2 was calculated by the formula of Lindahl et al for the INR of corresponding to PT-activity of 50% (half of the 100% that equates to INR 1.000). Above the INR calibrated columns (INRc) there is an upper number and a lower number, these are the above mentioned A and B, respectively.
As deemed relevant the upper number is selected to make NKP 1:2 to show INRc 1.357.
Clinical levels of interest range from 50 to 1000 μg/L in blood plasma.
In the selected calibration INR 1.000 and INR 1.357 were assigned to NKP and NKP 1:2, respectively, which was the same relevant calibration as selected in Examples 1 and 3 above.

[1] = dabigatran 52 μg/L in NKP plasma
[2] = dabigatran 157 μg/L in NKP plasma
[3] = dabigatran 236 μg/L in NKP plasma
[4] = dabigatran 355 μg/L in NKP plasma
[5] = dabigatran 533 μg/L in NKP plasma
[6] = dabigatran 800 μg/L in NKP plasma
[7] = dabigatran 1000 μg/L in NKP plasma

## dabigatran
[1]
  INR 10 μL sample: 1.09
  INR 20 μL sample: 1.16
  INRc 5 μL sample: 1.01
  INRc 10 μL sample: 1.03
  INRc 20 μL sample: 1.16
  INRo: 0.98
  ΔINRc 10 μL − 5 μL: 0.03
  ΔINRc 20 μL − 5 μL: 0.15
[2]
  INR 10 μL sample: 1.19
  INR 20 μL sample: 1.31
  INRc 5 μL sample: 1.08
  INRc 10 μL sample: 1.14
  INRc 20 μL sample: 1.36
  INRo: 1.02
  ΔINRc 10 μL − 5 μL: 0.05
  ΔINRc 20 μL − 5 μL: 0.28
[3]
  INR 5 μL sample: 1.17
  INR 10 μL sample: 1.30
  INR 20 μL sample: 1.53
  INRc 5 μL sample: 1.12
  INRc 10 μL sample: 1.26
  INRc 20 μL sample: 1.67
  INRo: 0.98
  ΔINRc 10 μL − 5 μL: 0.14
  ΔINRc 20 μL − 5 μL: 0.55
[4]
  INR 5 μL sample: 1.28
  INR 10 μL sample: 1.44
  INR 20 μL sample: 1.82
  INRc 5 μL sample: 1.22
  INRc 10 μL sample: 1.41
  INRc 20 μL sample: 2.09
  INRo: 1.03
  ΔINRc 10 μL − 5 μL: 0.19
  ΔINRc 20 μL − 5 μL: 0.87
[5]
  INR 5 μL sample: 1.44
  INR 10 μL sample: 1.70
  INR 20 μL sample: 2.38
  INRc 5 μL sample: 1.37
  INRc 10 μL sample: 1.70
  INRc 20 μL sample: 2.98
  ΔINRc 10 μL − 5 μL: 0.33
  ΔINRc 20 μL − 5 μL: 1.61
[6]
  INR 5 μL sample: 1.81
  INR 10 μL sample: 2.50
  INR 20 μL sample: 4.22
  INRc 5 μL sample: 1.72
  INRc 10 μL sample: 2.62
  INRc 20 μL sample: 6.36
  INRo: 0.81
  ΔINRc 10 μL − 5 μL: 0.91
  ΔINRc 20 μL − 5 μL: 4.64
[7]
  INR 5 μL sample: 2.53
  INR 10 μL sample: 3.55
  INR 20 μL sample: 7.03
  INRc 5 μL sample: 2.39
  INRc 10 μL sample: 3.89
  INRc 20 μL sample: 12.47
  INRo: 0.88
  ΔINRc 10 μL − 5 μL: 1.51
  ΔINRc 20 μL − 5 μL: 10.08
Normal plasma NKP, linear part of the graph (FIG. 8, FIG. 2)
  content at which the INRc-difference (20 μL minus 5 μL) reaches 0.5: about 200 μg/L

From patent publication US10613104B2, “Assay to determine anticoagulants in blood or blood plasma” (ZAFENA AB, priority 2014, dated 2020)
